{"source": "patent US8581584B2", "about": "“Membrane proteins, mechanisms of action and uses thereof” (priority 2010, dated 2013)", "molecular_target": "transmembrane domain of M2 protein (Influenza A virus, UniProt P0DOF5)", "sequence (P0DOF5 26-46)": "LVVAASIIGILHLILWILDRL", "assay": "solid state NMR spectra of uniformly aligned M2 samples with and without drug", "settings": "five isoleucines 15N labeled; FIG. 31", "from_the_text": "Uniformly aligned samples of membrane proteins meant that each molecule in the sample will have the same orientation with respect to the magnetic field axis of the NMR spectrometer. In this way the orientation dependent spin interactions such as anisotropic chemical shifts, dipolar and quadrupolar interactions can be observed. The orientations of the individual atomic sites in the protein reflect the orientation of that particular site with respect to the magnetic field."}
{"smiles": "NC12CC3CC(CC(C3)C1)C2", "note": "[amantadine]", "values": [{"measurement": "change of 15N-Ile resonances in response to drug binding", "result": "two of the resonances shift (arrows) dramatically in response to drug binding"}]}
